{
  "source": "paper PMC2686105",
  "about": "“Role of the stage-regulated nucleoside transporter TbNT10 in differentiation and adenosine uptake in Trypanosoma brucei” (Molecular and Biochemical Parasitology, 2007)",
  "molecular_target": "T1, TbNT10 (Trypanosoma brucei, UniProt Q38EK0)",
  "T1 construct": "gene Tb09.160.5480; endogenous in procyclic forms and re-expressed (addback clone A) from an EP procyclin locus in the TbNT10 null mutant",
  "T1 sequence (Q38EK0 entry or part of it)": "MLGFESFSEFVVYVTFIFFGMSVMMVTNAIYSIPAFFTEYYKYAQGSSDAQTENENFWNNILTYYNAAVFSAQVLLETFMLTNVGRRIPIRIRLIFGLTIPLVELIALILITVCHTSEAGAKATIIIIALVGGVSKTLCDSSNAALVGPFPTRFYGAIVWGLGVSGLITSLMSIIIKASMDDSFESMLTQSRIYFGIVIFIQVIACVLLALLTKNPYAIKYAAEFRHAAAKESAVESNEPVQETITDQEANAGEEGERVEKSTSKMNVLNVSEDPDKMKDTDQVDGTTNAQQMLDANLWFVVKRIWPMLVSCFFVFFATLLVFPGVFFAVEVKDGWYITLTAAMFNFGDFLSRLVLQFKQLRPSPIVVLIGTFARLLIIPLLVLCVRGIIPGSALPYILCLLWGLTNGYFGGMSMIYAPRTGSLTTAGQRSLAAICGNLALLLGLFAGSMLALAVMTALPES",
  "experiment": "3H-adenosine uptake; wild type, null mutant and addback procyclic cells",
  "format": "cell-based",
  "conditions": "procyclic forms; 5 min; labelled compound; transporter activity judged by null mutant versus addback",
  "data": [
    {"smiles": "Nc1ncnc2c1ncn2[C@@H]1O[C@H](CO)[C@@H](O)[C@H]1O", "note": "[adenosine]", "values": [
      {"measurement": "3H-adenosine uptake; wild type, null mutant and addback procyclic cells", "value": "it is the main transporter for adenosine in this life cycle stage"}
    ]}
  ]
}
